Results as given in US20240327406A1, “POTASSIUM CHANNEL MODULATORS” (Autifony Therapeutics Limited, priority 2021, published 2024).
pEC50: −log10 of the molar value. Where “and” joins values, the source holds several entries; their conditions need not be identical. Identical values can stand only once. Like-named read-outs stand apart in the source and are kept apart here.

Molecular target: T1, human Kv3.1 channels (hKv3.1) (Homo sapiens, UniProt P48547)
T1 sequence (P48547 1-501 limits assumed): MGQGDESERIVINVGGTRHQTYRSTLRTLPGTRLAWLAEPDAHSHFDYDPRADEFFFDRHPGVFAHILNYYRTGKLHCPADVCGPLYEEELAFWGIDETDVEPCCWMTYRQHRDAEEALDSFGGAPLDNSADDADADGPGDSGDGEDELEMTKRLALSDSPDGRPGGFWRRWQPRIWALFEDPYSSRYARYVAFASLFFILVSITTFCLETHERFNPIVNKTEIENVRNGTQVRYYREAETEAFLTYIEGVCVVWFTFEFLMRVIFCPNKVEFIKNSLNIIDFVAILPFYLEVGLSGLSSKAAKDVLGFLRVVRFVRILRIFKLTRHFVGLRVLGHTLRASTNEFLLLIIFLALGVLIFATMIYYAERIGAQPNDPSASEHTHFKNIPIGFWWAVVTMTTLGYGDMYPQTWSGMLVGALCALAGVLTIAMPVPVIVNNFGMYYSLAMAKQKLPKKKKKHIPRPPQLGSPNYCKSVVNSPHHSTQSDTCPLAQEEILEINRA
Assay: Measurement of Kv3 channel modulation: Kv3.1 assay (IonWorks Quattro whole-cell electrophysiology)
Assay type: cell-based
Settings: for Kv3.1 max R %: normalised to maximum effect of reference compound (50 microM); for EC50: read-out: Kv3.1 pEC50 (converted)
Protocol: The ability of the compounds of the invention to modulate the voltage-gated potassium channel subtypes Kv3.4/Kv3.3/Kv3.2/Kv3.1 may be determined using the following assay. Analogous methods may be used to investigate the ability of the compounds of the invention to modulate other channel subtypes.
Human embryonic kidney (HEK)-hKv3.1 cell line is generated by transfecting HEK-293 cells with an expression vector with human Kv3.1 (NM_004976.4). Cells are cultured with MEM supplemented with 10% Heat-Inactivated FBS, 2 mM L-glutamine, 1% Penicillin-Streptomycin, and 0.6 mg/ml of Geneticin (G418). HEK-hKv3.1b cells were amplified in T175 cm2 flask at 37° C. with 5% CO2, using MEM amplification medium, containing the G418 selection antibiotic (0.6 mg/ml). Cells were detached every 3-4 days, using DPBS to wash twice the flask, then TrypLE to dislodge the cells, and re-plated at a density of 2-4×10^6 cells/flask.
The day of the experiment, cells are removed from the incubator and the culture medium removed. Cells are washed with 5 ml of Dulbecco's PBS (DPBS) calcium and magnesium free and detached by the addition of 3 ml Versene (Invitrogen, Italy) followed by a brief incubation at 37° C. for 5 minutes. The flask is tapped to dislodge cells and 10 ml of DPBS containing calcium and magnesium is added to prepare a cell suspension. The cell suspension is then placed into a 15 ml centrifuge tube and centrifuged for 2 min at 1200 rpm. After centrifugation, the supernatant is removed and the cell pellet re-suspended in 4 ml of DPBS containing calcium and magnesium using a 5 ml pipette to break up the pellet. Cell suspension volume is then corrected to give a cell concentration for the assay of approximately 3 million cells per ml.
Experiments are conducted at r.t. using IonWorks Quattro™ planar array electrophysiology technology (Molecular Devices Corp.) with PatchPlate™ PPC. Stimulation protocols and data acquisition are carried out using a microcomputer (Dell Pentium 4). Planar electrode hole resistances (Rp) are determined by applying a 10 mV voltage step across each well. These measurements are performed before cell addition. After cell addition and seal formation, a seal test is performed by applying a voltage step from −80 mV to −70 mV for 160 ms. Following this, amphotericin-B solution is added to the intracellular face of the electrode to achieve intracellular access. Cells are held at −70 mV. Leak subtraction is conducted in all experiments by applying 50 ms hyperpolarizing (10 mV) prepulses to evoke leak currents followed by a 20 ms period at the holding potential before test pulses.
For hKv3.2 and hKv3.1, assays from the holding potential of −70 mV, a first test pulse at −15 mV was applied for 100 ms and after 100 ms at −70 mV a second pulse at +40 mV was applied for 50 ms. Cells were then maintained for 100 ms at −100 mV and another pulse from […] to +40 mV (duration 50 ms) was applied to clamp later the voltage at −40 mV during 200 ms
The intracellular solution contains the following (in mM): K-gluconate 100, KCl 54, MgCl2 3.2, HEPES 5, adjusted to pH 7.3 with KOH. Amphotericin-B solution is prepared as 50 mg/ml stock solution in DMSO and diluted to a final working concentration of 0.1 mg/ml in intracellular solution.
Compounds of use in the invention (or reference compounds such as N-cyclohexyl-N-[(7,8-dimethyl-2-oxo-1,2-dihydro-3-quinolinyl)methyl]-N′-phenylurea) are dissolved in dimethylsulfoxide (DMSO) at a stock concentration of 10 mM. […] Each dilution (1 μL) is transferred to another compound plate and external solution containing 0.05% pluronic acid (66 μL) is added. 3.5 μL from each plate containing a compound of the invention is added and incubated with the cells during the IonWorks Quattro™ experiment. The final assay dilution is 200 and the final compound concentrations are in the range 50 μM to 50 nM.

[1] = Table 2, Example compounds, rounded to one decimal place, some compounds with two data sets (n given in cell)
[2] = Table 3, Reference Examples and corresponding Examples, rounded to one decimal place
[3] = Table 1, Reference Examples, current at -15 mV step, normalised to 50 microM reference compound

SMILES | Kv3.1 max R % (Table 2, Example compounds) | EC50 [1] | also measured
Cc1cnc2c(c1)[nH]c(=O)n2-c1cnc(Oc2cccc3c2C2(CC2)CO3)cn1 [Example 38, 6-methyl-3-(5-spiro[2H-benzofuran-3,1′-cyclopropane]-4-yloxypyrazin-2-yl)-1H-imidazo[4,5-b]pyridin-2-one] | 122% | 200 nM | 
Cn1cc2[nH]c(=O)n(-c3ccc(Oc4cccc5c4C(C)(C)CO5)nc3)c2n1 [Example 20, 6-[6-[(3,3-dimethyl-2H-benzofuran-4-yl)oxy]-3-pyridyl]-2-methyl-4H-imidazo[4,5-c]pyrazol-5-one] | 145% and 155% | 794 nM and 631 nM | 
CC[C@H]1NC(=O)N(c2ccc(Oc3ccc(C)c4c3C3(CC3)CO4)nc2)C1=O [RE1, reference compound] |  |  | Kv3.1 max R % (Table 1, Reference Examples): 157%
Cn1cc2[nH]c(=O)n(-c3cnc(Oc4cccc5c4C4(CC4)CO5)cn3)c2n1 [Example 21, 2-methyl-6-(5-spiro[2H-benzofuran-3,1′-cyclopropane]-4-yloxypyrazin-2-yl)-4H-imidazo[4,5-c]pyrazol-5-one] | 96% | 10000 nM | 
Cc1ccc(Oc2ccc(N3C(=O)NCc4cccnc43)cn2)c2c1OCC21CC1 [RE11, reference compound] |  |  | EC50 [2]: 2000 nM
Cc1ccc(Oc2ccc(-n3c(=O)[nH]c4cn(C)nc43)cn2)c2c1OCC21CC1 [Example 19, 2-methyl-6-[6-(7-methylspiro[2Hbenzofuran-3,1′-cyclopropane]-4-yl)oxy-3-pyridyl]-4H-imidazo[4,5-c]pyrazol-5-one] | 99% | 316 nM | 
Cc1ccc(Oc2ccc(-n3c(=O)[nH]c4cncnc43)cn2)c2c1OCC21CC1 [Example 29, 9-[6-(7-methylspiro[2H-benzofuran-3,1′-cyclopropane]-4-yl)oxy-3-pyridyl]-7H-purin-8-one] | 117% | 158 nM | 
CC1(C)COc2cccc(Oc3cnc(-n4c(=O)[nH]c5cccnc54)cn3)c21 [Example 9, 3-[5-[(3,3-dimethyl-2H-benzofuran-4-yl)oxy]pyrazin-2-yl]-1H-imidazo[4,5-b]pyridin-2-one] | 147% | 1260 nM | 
Cc1ncc2[nH]c(=O)n(-c3ccc(Oc4ccc(C)c(OC(F)(F)F)c4)nc3)c2n1 [Example 27, 2-methyl-9-[6-[4-methyl-3-(trifluoromethoxy)phenoxy]-3-pyridyl]-7H-purin-8-one] | 134% and 138% | 1580 nM and 1260 nM | 
Cc1ccnc2c1[nH]c(=O)n2-c1cnc(Oc2cccc3c2C2(CC2)CO3)nc1 [Example 15, 7-methyl-3-(2-spiro[2H-benzofuran-3,1′-cyclopropane]-4-yloxypyrimidin-5-yl)-1H-imidazo[4,5-b]pyridin-2-one] | 201% | 1000 nM | 
Cc1ccc(Oc2ccc(N3C(=O)NC4COCC43)cn2)c2c1OCC21CC1 (stereo not drawn) [RE3, reference compound] |  |  | EC50 [3]: > 50100 nM; Kv3.1 max R % (Table 1, Reference Examples): 30%
Cc1ccc(Oc2ccc(N3C(=O)CC(C)(C)NC3=O)cn2)c2c1OCC21CC1 [RE5, reference compound] |  |  | EC50 [3]: 11200 nM; Kv3.1 max R % (Table 1, Reference Examples): 90%
Cc1ccc2[nH]c(=O)n(-c3cnc(Oc4cccc5c4C4(CC4)CO5)cn3)c2n1 [Example 37, 5-methyl-3-(5-spiro[2H-benzofuran-3,1′-cyclopropane]-4-yloxypyrazin-2-yl)-1H-imidazo[4,5-b]pyridin-2-one] | 124% | 126 nM | 
Cc1ccc(Oc2ncc(-n3c(=O)[nH]c4cccnc43)cn2)c2c1OCC2(C)C [Example 39, 3-[2-[(3,3,7-trimethyl-2H-benzofuran-4-yl)oxy]pyrimidin-5-yl]-1H-imidazo[4,5-b]pyridin-2-one] | 215% | 1580 nM | 
Cc1ccc(Oc2cnc(-n3c(=O)[nH]c4cccnc43)cn2)c2c1OCC21CC1 [Example 11, 3-[5-(7-methylspiro[2H-benzofuran-3,1′-cyclopropane]-4-yl)oxypyrazin-2-yl]-1H-imidazo[4,5-b]pyridin-2-one] | 205% | 316 nM | 
Cc1ccc(Oc2ccc(-n3c(=O)[nH]c4cccnc43)cn2)c2c1OCC21CC1 [Example 1, 3-[6-(7-methylspiro[2H-benzofuran-3,1′-cyclopropane]-4-yl)oxy-3-pyridyl]-1H-imidazo[4,5-b]pyridin-2-one] | 148% | 200 nM | EC50 [2]: 200 nM
Cc1ccc(Oc2ccc(-n3c(=O)[nH]c4ccncc43)cn2)c2c1OCC21CC1 [Example 35, 3-[6-(7-methylspiro[2H-benzofuran-3,1′-cyclopropane]-4-yl)oxy-3-pyridyl]-1H-imidazo[4,5-c]pyridin-2-one] | 225% | 1000 nM | 
COc1cccc(Oc2ncc(-n3c(=O)[nH]c4cccnc43)cn2)c1 [Example 16, 3-[2-(3-methoxyphenoxy)pyrimidin-5-yl]-1H-imidazo[4,5-b]pyridin-2-one] | 124% | 3160 nM | 
Cc1ccc(Oc2ccc(N3C(=O)NCC(C)(C)C3=O)cn2)c2c1OCC21CC1 [RE6, reference compound] |  |  | EC50 [3]: 25100 nM; Kv3.1 max R % (Table 1, Reference Examples): 111%
O=c1[nH]c2cccnc2n1-c1ccc(Oc2cccc3c2C2(CC2)CO3)nc1 [Example 3, 3-(6-spiro[2H-benzofuran-3,1′-cyclopropane]-4-yloxy-3-pyridyl)-1H-imidazo[4,5-b]pyridin-2-one] | 197% |  | pEC50 (Kv3.1 pEC50, Table 2, Example compounds, rounded to one decimal place, some compounds with two data sets (n given in cell)): 7.00
Cc1ccc(Oc2ccc(N3CCNC3=O)cn2)c2c1OCC21CC1 [RE7, reference compound] |  |  | EC50 [3]: 39800 nM; Kv3.1 max R % (Table 1, Reference Examples): 29%
Cc1ccc(Oc2ccc(-n3c(=O)[nH]c4c(C)ccnc43)cn2)c2c1OCC21CC1 [Example 2, 7-methyl-3-[6-(7-methylspiro[2H-benzofuran-3,1′-cyclopropane]-4-yl)oxy-3-pyridyl]-1H-imidazo[4,5-b]pyridin-2-one] | 83% | 158 nM | 
CC1(C)COc2cccc(Oc3ccc(-n4c(=O)[nH]c5cccnc54)cn3)c21 [Example 12, 3-[6-[(3,3-dimethyl-2H-benzofuran-4-yl)oxy]-3-pyridyl]-1H-imidazo[4,5-b]pyridin-2-one] | 164% | 316 nM | 
